According to patent US11369648B2 (priority 2018, dated 2022):
Entries after “also recorded” stand apart in the source; their conditions may differ.

How the values were obtained:
antiviral protein MxA = assay type: in vivo, ICR female mice; details: qPCR, GAPDH internal reference, 2^-ΔΔt, times that of the model group
influenza virus [1] = assay: Effect on body weight of influenza mice; assay type: in vivo, ICR female mice; details: fourth day after challenge, bacteria 10^9 CFU intragastrically daily from two weeks before challenge, ribavirin intraperitoneally from second day
influenza virus [2] = assay: Effect on viral load in lungs of influenza mice (qPCR); assay type: in vivo, ICR female mice
influenza virus [3] = assay: Effect on blood indexes (neutrophils, lymphocytes) of influenza mice; design: species or system ICR female mice; details: mouse, in vivo
influenza virus [4] = test system: influenza virus; design: species or system ICR female mice; details: mouse, in vivo

NC(=O)c1ncn([C@@H]2O[C@H](CO)[C@@H](O)[C@H]2O)n1 [Treatment, ribavirin]
expression quantity of MxA in the lungs, relative to the model group (Model) (antiviral protein MxA): 2.62 times | body weight decrease compared with the control group (Control) (influenza virus [1]): about 5% | reduction in viral load in the lungs (significance versus model group) (influenza virus [2]; mouse, in vivo): has significance | viral load in the lungs, relative to the model group (influenza virus [2]; right lung, fifth day after challenge, qPCR, GAPDH internal reference, 2^-ΔΔt, % of that of the model group): 38.03% | lymphocytes, change compared with the blank control group (Control) (influenza virus [3]): without significant differences | neutrophils, change compared with the blank control group (Control) (influenza virus [3]): without significant differences | lung histopathology (inflammation, infiltration of inflammatory cells) (influenza virus [4]): mild infiltration of inflammatory cells; also recorded: relatively mild inflammation; also recorded: some moderate and mild inflammation
